Source: patent publication US20030176436A1, “Novel heterocyclic compounds as selective bacterial DHFR inhibitors and their uses thereof” (priority 2001, published 2003)
In brackets after ≈: the same amount, converted by molar mass. Where two headings read alike, the source gives them in different places.

Legend:
bacterial DHFR (bDHFR) = target: T1, bacterial DHFR (bDHFR) (Escherichia coli, UniProt P0ABQ4); assay: DHFR enzyme assay, Ki determination, bacterial DHFR; assay type: biochemical, E. coli
T1 construct: gift of Eric Brown, McMaster University
Description: Human and Bacterial DHFR: E. coli DHFR was kindly provided by Eric Brown of MacMaster University.
(§1) Dihydrofolic acid and NADPH were purchased from Sigma. Enzyme assays were adapted for microtitre format from a previously published procedure (2, 3). All assays were performed in a 250 μl volume in 96-well microtitre plates. Typical assays consisted of 20 nM DHFR (human or E. coli), 100 μM NADPH, and 50 μM dihydrofolic acid in 100 mM HEPES pH 8, 10 mM KCl, and 10 mM MgCl2. The assay was monitored spectrophotometrically for the conversion of NADPH to NADP+, which results in a decrease in absorbance at 340 nm.
(§2) The reaction was initiated by the addition of 125 μl of 100 μM dihydrofolic acid. The final concentrations in the assay were 20 nM DHFR, 100 μM NADPH, 50 μM dihydrofolic acid, and a range of 500 μM to 20 nM inhibitor compound. The final DMSO concentration was 2% of the total volume. Reactions were monitored as described above.

human DHFR (hDHFR) = target: T2, human DHFR (hDHFR) (Homo sapiens, UniProt P00374); assay: DHFR enzyme assay, Ki determination, human DHFR; assay type: biochemical; details: Table 3
T2 construct: result in the amplification of a 186 amino acid hDHFR coding region; made in house; host or cells: E. coli Top10
T2 sequence (P00374 1-187): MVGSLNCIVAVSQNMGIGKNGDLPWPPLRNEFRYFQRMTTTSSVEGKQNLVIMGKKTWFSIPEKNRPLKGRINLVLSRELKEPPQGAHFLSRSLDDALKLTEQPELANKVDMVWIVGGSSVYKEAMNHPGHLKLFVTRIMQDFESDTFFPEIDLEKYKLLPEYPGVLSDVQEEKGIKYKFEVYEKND
Description: The human DHFR cDNA was cloned by PCR from the Human Universal Quick-clone™ cDNA purchased from Clontech.
The PCR fragment was digested with restriction enzymes NdeI and HindIII, and then ligated into a derivative of the pKK223-3 expression vector (Amersham Pharmacia). The final expression vector (pFW96.2) was transformed into E. coli Top10 F40 and hDHFR protein was induced by the addition of 1 mM IPTG followed by incubation at 37° C. for 4 hrs. Recombinant human DHFR was purified based on a previously published procedure (2).
as §1
as §2, with “Five microliters of inhibitor compound in DMSO was added to 120 μl of enzyme solution (40 nM DHFR and 200 μM NADPH). The reaction” for “The reaction”
V=(Vmax[S])/(Km(1+I/Ki)+[S]), where S=dihydrofolate, Km=Michaelis constant for dihydrofolate, I=inhibitor concentration.

E. coli = assay: Microdilution antimicrobial susceptibility test (MIC); assay type: cell-based; details: Escherichia coli; Table 2; 90% inhibition of growth
Description: (§3) Stock solutions of tested compounds were prepared in N,N-dimethylformamide (DMF) at a concentration of 5 mg/mL. Working solutions of the tested compounds were then prepared from the stock solutions, in Mueller-Hinton broth (MHB) with a starting concentration of 64 μg/mL.
(§4) Bacterial inocula were prepared from overnight culture (i.e., one fresh colony from agar plate in 5 ml MHB; H. influenzae was grown in MHB with the addition of yeast extract, haematin, and NAD), centrifuged 2×5 min/3000 rpm (for S. pneumoniae and H. influenzae, 2×10 min/3000 rpm), and dispensed in 5 ml of fresh MHB each time, such that the bacterial suspension is diluted to obtain 100 colony forming units (cfu) in a microplate well (100 μl total volume).
(§5) Microplate wells were filled with two-fold dilutions of test compound (50 μl), starting with 64 μg/ml. Wells were then filled with 50 μl of bacterial inoculum (final volume: 100 μl/well). The plates were incubated at 37° C. for 18-24 hours (S. pneumoniae was grown in a CO2-enriched atmosphere).

E. faecalis = assay: as above; assay type: cell-based; details: Enterococcus faecalis; Table 2; 90% inhibition of growth
Description: as §3, §4, §5

H. influenzae = assay: as above; assay type: cell-based; details: Haemophilus influenzae, read-out: MIC H. influenzae
Description: as §3, §4, §5

M. catarrhalis = assay: as above; assay type: cell-based; details: Moraxella catarrhalis; Table 2; 90% inhibition of growth
Description: as §3, §4, §5

P. aeruginosa = assay: as above; assay type: cell-based; details: Pseudomonas aeruginosa; Table 2; 90% inhibition of growth
Description: as §3, §4, §5

S. aureus [1] = assay: as above; assay type: cell-based; details: Staphylococcus aureus
Description: as §3, §4, §5

S. pneumoniae = assay: as above; assay type: cell-based; details: Streptococcus pneumoniae; Table 2; 90% inhibition of growth
Description: as §3, §4, §5

S. cerevisiae = assay: Microdilution susceptibility test (MIC), yeast as indicator of cytotoxicity; assay type: cell-based; details: Saccharomyces cerevisiae; Table 2; 90% inhibition of growth
Excerpt: The following table of compounds of one aspect of the invention have potent antimicrobial activity against S. aureus bacteria and are anticipated to have physical-chemical properties similar to those of orally absorbed and bioavailable drugs and drug-like compounds. Antibacterial activity for a variety of bacterial species are shown (S. aureus, S. pneumoniae, E. faecalis, M. catarrhalis, and H. influenzae). The yeast cell (S. cerevisiae) in this panel of organisms is an indicator of potential cytotoxicity in mammalian cells.
as §3, §5

S. aureus [2] = assay: S. aureus mouse septicaemia model; assay type: in vivo; details: administered orally; mouse protection model
Description: Systemic models of infection are described in the literature. The following conditions can be used to assay the compounds in this application. Bacteria are grown in Mueller-Hinton agar at 37° C. during 24 h. For each experiment, a bacterial suspension is prepared by inoculating 4-5 bacterial colonies onto Mueller-Hinton broth (MHB) and by incubating at 37° C. for 24 hours to yield approximately 10^9 CFU/ml. BalbC female mice are supplied by Charles River (Deutschland). Animals are infected by a single administration of an LD100 dose of bacterial culture suspension (1×10^8 CFU/100 μl per animal) in the tail vein. A careful clinical examination is made several times a day, and obvious clinical symptoms and mortality are recorded. Animals survival is observed for a period of 6 days. Azithromycin is dissolved in 0.5% methocel in saline solution and administered orally. Test compounds are micronized with mortar and pestle and then dissolved in methocel saline solution with 3% of DMF. The first dose is administered 30 minutes after infection, with following doses every 12 hours for 3 days.
In vivo Efficacy Testing—S. aureus Mouse Septicaemia Model.
Several compounds were tested in a S. aureus mouse protection models for efficacy. Two compounds, 25 and 62, protected 40% of treated animals from the lethal infection when administered orally.

[3] = Table 2, 90% inhibition of growth
[4] = Table 2, 90% inhibition of growth, read-out: MIC S. aureus
[5] = second part of table, read-out: bDHFR

SMILES | Ki (bacterial DHFR (bDHFR); Table 3, read-out: bDHFR Ki) [µM] | Ki (human DHFR (hDHFR)) [nM] | MIC (E. coli) [µg/mL] | MIC (E. faecalis) [µg/mL] | MIC (H. influenzae; [3]) [µg/mL] | MIC (M. catarrhalis) [µg/mL] | MIC (P. aeruginosa) [µg/mL] | MIC (S. aureus [1]; [4]) [µg/mL] | MIC (S. pneumoniae) [µg/mL] | MIC (S. cerevisiae) [µg/mL] | MIC (H. influenzae) [µg/mL] | Ki (bacterial DHFR (bDHFR); average, read-out: bDHFR Ki/(μM) avg) [µM] | Ki (bacterial DHFR (bDHFR); [5]) [µM] | MIC (S. aureus [1]; MIC, average, read-out: S. aureus (μg/ml) avg) [µg/mL] | treated animals protected from the lethal infection (S. aureus [2]) [%]
Nc1nc(N)c2nc(CNc3ccc4nc(S)sc4c3)cnc2n1 [Compound 10] | 0.1 to 0.499 | > 5000 | > 64 | < 2 | 16 to 64 (≈ 44.9 to 180 µM) | < 2 | > 64 | 2 to 8 (≈ 5.61 to 22.4 µM) | 2 to 8 (≈ 5.61 to 22.4 µM) | 16 to 64 (≈ 44.9 to 180 µM) |  |  |  |  | 
Nc1nc(N)c2nc(CNc3cc(Cl)cc(Cl)c3)cnc2n1 [Compound 11] | 0.5 to 0.999 | > 5000 | > 64 | < 2 |  | < 2 | > 64 | < 2 | < 2 | > 64 | > 64 |  |  |  | 
Nc1nc(N)c2nc(CNc3ccc([N+](=O)[O-])cc3O)cnc2n1 [Compound 12] | 0.1 to 0.499 | 1000 to 5000 | > 64 |  | 2 to 8 (≈ 6.09 to 24.4 µM) | 16 to 64 (≈ 48.7 to 195 µM) | > 64 | > 64 | < 2 | > 64 |  |  |  |  | 
CN(Cc1cnc2nc(N)nc(N)c2n1)c1cccc([N+](=O)[O-])c1 [Compound 14] | < 0.1 | > 5000 | > 64 | < 2 | < 2 | < 2 | > 64 | < 2 | < 2 | > 64 |  |  |  |  | 
Nc1nc(N)c2nc(CNc3ccc(F)c([N+](=O)[O-])c3)cnc2n1 [Compound 15] | 0.1 to 0.499 | > 5000 | > 64 | < 2 | < 2 | < 2 | > 64 | < 2 | < 2 | 2 to 8 (≈ 6.06 to 24.2 µM) |  |  |  |  | 
Nc1nc(N)c2nc(CNc3cccc(OCc4ccccc4)c3)cnc2n1 [Compound 16] | < 0.1 | > 5000 | > 64 | < 2 | > 64 | < 2 | > 64 | < 2 | < 2 | > 64 |  |  |  |  | 
COC(=O)c1ccc(N(C)Cc2cnc3nc(N)nc(N)c3n2)cc1 [Compound 17] | < 0.1 |  | > 64 | < 2 | < 2 | < 2 | > 64 | < 2 | < 2 | > 64 |  |  |  |  | 
CC(c1csc2ccccc12)N(C)c1ncc2c(N)nc(N)nc2n1 (centres unmarked) [Compound 25] |  |  |  |  |  |  |  |  |  |  |  | 0.004 | < 0.004 | 0.25 (≈ 0.711 µM) | 40
Cc1ccc(C(C)N(C)c2ncc3c(N)nc(N)nc3n2)c2ccccc12 (centres unmarked) [Compound 62] |  |  |  |  |  |  |  |  |  |  |  |  | 0.802 |  | 40
